Consider 19 compounds from article PMC5041982, “Small-molecule inhibition of STAT3 in radioresistant head and neck squamous cell carcinoma” (Oncotarget, 2016).

Values joined by “and” are separate entries in the source; they are usually repeats but may differ in a detail not shown here. Identical values can stand only once.

The target of assay [1] is T1, pSTAT1 (Tyr-701) (Homo sapiens, UniProt P42224).
T1 construct: endogenous in cells; host or cells: Kasumi-1
T1 sequence (P42224 1-750): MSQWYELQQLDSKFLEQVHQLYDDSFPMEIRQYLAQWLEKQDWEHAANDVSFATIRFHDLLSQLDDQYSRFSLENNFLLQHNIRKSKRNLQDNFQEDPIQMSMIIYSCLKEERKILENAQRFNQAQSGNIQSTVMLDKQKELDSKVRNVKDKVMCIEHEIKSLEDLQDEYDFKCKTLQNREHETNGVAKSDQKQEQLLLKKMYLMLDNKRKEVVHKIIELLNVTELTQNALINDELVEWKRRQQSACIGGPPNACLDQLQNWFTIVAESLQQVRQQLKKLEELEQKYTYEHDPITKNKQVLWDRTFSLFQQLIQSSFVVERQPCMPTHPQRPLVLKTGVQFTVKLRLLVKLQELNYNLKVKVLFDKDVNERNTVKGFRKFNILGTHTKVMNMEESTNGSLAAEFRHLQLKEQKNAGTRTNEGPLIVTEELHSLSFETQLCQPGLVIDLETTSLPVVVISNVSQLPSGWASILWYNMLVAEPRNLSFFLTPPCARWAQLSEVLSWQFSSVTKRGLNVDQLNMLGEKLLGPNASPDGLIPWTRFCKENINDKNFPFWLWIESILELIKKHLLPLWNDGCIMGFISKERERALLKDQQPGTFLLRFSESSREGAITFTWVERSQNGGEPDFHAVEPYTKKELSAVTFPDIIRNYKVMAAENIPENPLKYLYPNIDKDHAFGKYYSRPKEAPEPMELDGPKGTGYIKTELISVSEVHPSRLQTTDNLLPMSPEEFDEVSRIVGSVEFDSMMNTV
Description: Phosphoflow, IFN-γ-induced pSTAT1 in Kasumi-1 cells. It counts as cell-based. The conditions noted are these: Kasumi-1, IFN-γ 10 ng/ml 15 min; mean, n ≥ 2; read-out: Ligand Induced Phosphorylation (Phosphoflow) pSTAT1 (IFN-γ) IC50. The procedure:
(§1) The equilibrium binding levels obtained ± compound were normalized (resonance obtained in the presence of compound ÷ the resonance obtained in the absence of compound × 100) and plotted against Log [nM] […] B. Inhibition of ligand-stimulated STAT phosphorylation, measured by phosphoflow. Serum-starved (1 hour) Kasumi-1 cells, pre-incubated with compound/DMSO (1 hour), were treated with G-CSF (10 ng/ml, 15 min, left two panels) or IFN-γ (10ng/ml, 15 min, right panel). Cells were permeabilized and stained with Alexa647-pSTAT3, and PE-pSTAT1 antibodies and analyzed on BD LSR2. FCS files were uploaded to Cytobank for pSTAT3 and pSTAT1 quantitation. Histograms depicting pSTAT3 and pSTAT1 levels are shown. C. Mean fluorescence (pSTAT3/1) levels were plotted as function the Log [M] compound, and IC50 calculated using GraphPad. […] D. Inhibition of ligand-stimulated STAT phosphorylation, measured by Luminex. Serum-starved (1 hour) Kasumi-1 cells, pre-incubated with compound/DMSO (0/0.1/0.3/1/3/10/100 μM, 1 hour), were treated with G-CSF (10 ng/ml, 15′). Total protein extracts of cells were assayed for pSTAT3, pSTAT1, and GAPDH levels by Luminex. GAPDH-normalized pSTAT3 or pSTAT1 values were divided by this ratio for untreated cells and expressed in percentage. These values were plotted as a function of Log [M] compound, and IC50 values calculated using GraphPad.
(§2) Phosphoflow analysis was done as described in Xu et al. Briefly, Kasumi-1 cells, were serum-starved, pre-treated with compound or DMSO (1 hour, RT) and then stimulated with 20 μl of GCSF (10 ng/ml) for 15 minutes at 37°C. The cells were then permeabilized and stained with Alexa647-pSTAT3, Alexa488-pSTAT5 and PE-pSTAT1 antibodies and analyzed using the BD LSR2. FCS files were exported and uploaded to Cytobank for determination of phosphoproteins as earlier. Gating was done on live, single cells and then gates selected for positive ligand-activated pSTAT3 and pSTAT1. IC50 values were calculated using the GraphPad Prism.

For assay [2], the system named is pSTAT5. Description: Phosphoflow, G-CSF-induced pSTAT5 in Kasumi-1 cells. The conditions noted are these: mean, n ≥ 2, read-out: Ligand Induced Phosphorylation (Phosphoflow) pSTAT5 (G-CSF) IC50. It counts as cell-based. On the procedure: as §2
Assay [3] has as its target T2, pSTAT3 (Tyr-705) (Homo sapiens, UniProt P40763).
T2 construct: endogenous in cells; host or cells: Kasumi-1
The assay can be described thus: Phosphoflow, G-CSF-induced STAT3 phosphorylation in Kasumi-1 cells. Format: cell-based. The following applies: Kasumi-1, G-CSF 10 ng/ml 15 min; mean, n ≥ 2; read-out: Ligand Induced Phosphorylation (Phosphoflow) pSTAT3 (GCSF) IC50. On the procedure: as §1, §2

Assay [4] has as its target STAT3 (Homo sapiens, UniProt P40763). Description: STAT3/pY-peptide binding surface plasmon resonance (SPR) assay. The conditions noted are these: for Inhibition of STAT3 binding to pY-peptide compared with C188: SPR; for IC50: STAT3 200 nM, EGFR pY1068 dodecapeptide, mean, n ≥ 2, read-out: pY-Peptide Binding (SPR) IC50. The procedure: The equilibrium binding levels obtained ± compound were normalized (resonance obtained in the presence of compound ÷ the resonance obtained in the absence of compound × 100) and plotted against Log [nM] […] B. Inhibition of ligand-stimulated STAT phosphorylation, measured by phosphoflow. Serum-starved (1 hour) Kasumi-1 cells, pre-incubated with compound/DMSO (1 hour), were treated with G-CSF (10 ng/ml, 15 min, left two panels) or IFN-γ (10ng/ml, 15 min, right panel). Cells were permeabilized and stained with Alexa647-pSTAT3, and PE-pSTAT1 antibodies and analyzed on BD LSR2. FCS files were uploaded to Cytobank for pSTAT3 and pSTAT1 quantitation. Histograms depicting pSTAT3 and pSTAT1 levels are shown. C. Mean fluorescence (pSTAT3/1) levels were plotted as function the Log [M] compound, and IC50 calculated using GraphPad. […] D. Inhibition of ligand-stimulated STAT phosphorylation, measured by Luminex. Serum-starved (1 hour) Kasumi-1 cells, pre-incubated with compound/DMSO (0/0.1/0.3/1/3/10/100 μM, 1 hour), were treated with G-CSF (10 ng/ml, 15′). Total protein extracts of cells were assayed for pSTAT3, pSTAT1, and GAPDH levels by Luminex. GAPDH-normalized pSTAT3 or pSTAT1 values were divided by this ratio for untreated cells and expressed in percentage. These values were plotted as a function of Log [M] compound, and IC50 values calculated using GraphPad. […]
3-D pharmacophore sorting used to evaluate the effect of each compound on STAT3 binding. Responses were normalized by dividing the […]
fingerprint screening were converted into 3-D structures compounds at 2 min and multiplying by 100. IC values […]
for analysis as described below. were determined by plotting % maximum response as a 3-D pharmacophore generation function of log concentration of compound and fitting the Each molecular chemical feature, including experimental points to a competitive binding model using hydrogen bond donor, hydrogen bond acceptor, positive a four parameter logistic equation: R = Rhigh − (Rhigh − R low)/ (1 + conc/A1)^A2, where R = percent response at and negative ionizable group, and hydrophobic region, inhibitor concentration, R = percent response with no was generated using the LigandScout application compound, R= percent response at highest compound high framework and projected into 3-D space. concentration, A2 = fitting parameter (slope) and A1 = low Feature-pairing IC50 (BIAevaluation Software version 4.1). The inhibition Each chemical feature was converted into distance constant (Ki) was derived from the Cheng-Prusoff bin and the complete set of distance bins used to construct equation Ki=IC50/(1+[C]/Kd) as used by Halling et al a cost matrix. The most favorable pairing based on cost where C stands for STAT3 concentration used in the SPR matrix was identified. assay and Kd denotes the dissociation constant for STAT3 3-D pharmacophore transformation binding to its phosphorylated EGFR ligand in the SPR […]
STAT3/pY-peptide binding assay and total protein extracted from cell pellets. […]
STAT3 binding assays were performed at 25 °C (Millipore, Danvers, MA) coupled to antibody against
In general terms: Surface plasmon resonance follows binding to a sensor surface in real time, without labels.

As usually defined, the IC50 is the midpoint of a concentration-inhibition curve.

Chain of STAT3 (P40763 whole entry, species assumed): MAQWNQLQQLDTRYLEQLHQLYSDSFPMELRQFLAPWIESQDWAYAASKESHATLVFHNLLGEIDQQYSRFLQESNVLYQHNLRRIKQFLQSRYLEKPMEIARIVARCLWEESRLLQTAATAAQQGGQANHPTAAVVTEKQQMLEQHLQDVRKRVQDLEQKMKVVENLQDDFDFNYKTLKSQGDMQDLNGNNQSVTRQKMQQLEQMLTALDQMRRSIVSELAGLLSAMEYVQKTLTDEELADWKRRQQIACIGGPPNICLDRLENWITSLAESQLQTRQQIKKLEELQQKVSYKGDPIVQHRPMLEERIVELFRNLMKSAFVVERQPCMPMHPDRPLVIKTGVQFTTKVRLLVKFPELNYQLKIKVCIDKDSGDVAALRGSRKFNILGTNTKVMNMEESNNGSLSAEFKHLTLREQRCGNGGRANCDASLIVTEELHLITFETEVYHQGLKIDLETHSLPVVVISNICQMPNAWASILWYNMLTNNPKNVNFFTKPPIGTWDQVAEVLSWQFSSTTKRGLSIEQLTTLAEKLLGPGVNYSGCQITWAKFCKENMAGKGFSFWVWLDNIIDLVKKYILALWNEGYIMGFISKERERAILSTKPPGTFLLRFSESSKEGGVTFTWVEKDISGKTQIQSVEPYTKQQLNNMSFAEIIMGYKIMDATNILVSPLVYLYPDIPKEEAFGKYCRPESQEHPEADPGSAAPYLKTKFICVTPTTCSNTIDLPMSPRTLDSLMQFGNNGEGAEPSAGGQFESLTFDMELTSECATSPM
T2 sequence (P40763 whole entry): as the sequence (P40763 whole entry, species assumed) above

In the case of `O=[N+]([O-])c1cccc(S(=O)(=O)Nc2cc(Sc3nc4ccccc4s3)c(O)c3ccccc23)c1` [Compound C188-1], the half-inhibitory concentration (IC50) in assay [1] was found to be 50.5 ± 53 µM; in assay [2] it was 1.5 µM; in assay [3], 16.2 ± 24.1 µM; in assay [4], 5.5 ± 2.1 µM. Further, in assay [4], the “Inhibition of STAT3 binding to pY-peptide compared with C188” value (“Inhibition … compared with C188” below) is on record as “improved inhibition”.

`Cc1ccc(S(=O)(=O)Nc2cc(Sc3nc4ccccc4s3)c(O)c3ccccc23)c(C)c1` [Compound C188-2]: the half-maximal inhibitory concentration (IC50) in assay [1] worked out at 51 µM; in assay [2] it was 35 ± 29.7 µM; in assay [3] it was 29.8 ± 25.9 µM; in assay [4], 20 ± 9.9 µM.

With `Cc1cc(C)c(S(=O)(=O)Nc2cc(C(C(=O)OC(C)C)C(=O)C(F)(F)F)c(O)c3ccccc23)c(C)c1` (stereo not shown) [Compound C188-3], the concentration for half-maximal inhibition (IC50) in assay [1] was 34.5 ± 10.6 µM; in assay [2], 21 µM; in assay [3], 21.6 ± 11.1 µM; in assay [4] it was 17.3 ± 8.5 µM.

For the compound `CC(C)OC(=O)C(C(=O)C(F)(F)F)c1cc(NS(=O)(=O)c2ccc(Br)cc2)c2ccccc2c1O` (stereo not shown) [Compound C188-4], the IC50 in assay [1] was found to be 29 µM; in assay [3] it was 11 ± 1.4 µM; in assay [4] it was 21.5 ± 21.9 µM.

As for `CC(C)OC(=O)C(C(=O)C(F)(F)F)c1cc(NS(=O)(=O)c2ccc(Cl)cc2)c2ccccc2c1O` (stereo not shown) [Compound C188-5], the values for the half-maximal inhibitory concentration (IC50) in assay [2], in assay [3] and in assay [4] were > 300 µM, 27 ± 1.4 µM and 11.5 ± 7.8 µM, respectively.

Turning to `CC(C)OC(=O)C(C(=O)C(F)(F)F)c1cc(NS(=O)(=O)c2ccccc2)c2ccccc2c1O` (stereo not shown) [Compound C188-6], the 50% inhibitory concentration (IC50) is 23.5 ± 6.4 µM in assay [3] and 16 ± 15.6 µM in assay [4].

On to `Cc1cc(C)c(S(=O)(=O)Nc2cc(Cl)c(O)c3ccccc23)cc1C` [Compound C188-10], for which the IC50 in assay [1] is > 300 µM; in assay [2] it was > 300 µM; in assay [3], > 300 µM; in assay [4], 8 ± 2.8 µM. Moreover, the “Inhibition … compared with C188” value in assay [4] is reported as “activity similar to C188”.

For `CC(=O)c1c(C)oc2c1cc(NS(=O)(=O)c1cc(C)ccc1C)c1ccccc12` [Compound C188-11], the IC50 in assay [1] is > 300 µM; in assay [2] it was > 300 µM; in assay [3], > 300 µM; in assay [4], 55 µM and 54.5 µM.

Regarding `CC(=O)Nc1c([N+](=O)[O-])cc(NS(=O)(=O)c2ccccc2)c2ccccc12` [Compound C188-12], the IC50 in assay [1], in assay [2], in assay [3] and in assay [4] was > 300 µM in each case.

`CC(=O)Nc1c([N+](=O)[O-])cc(N(C(C)=O)S(=O)(=O)c2ccccc2)c2ccccc12` [Compound C188-13]: the concentration for half-maximal inhibition (IC50) in assay [1] was > 300 µM; in assay [2], > 300 µM; in assay [4] it was 280 ± 41 µM.

`O=S(=O)(Nc1cc(Sc2ccccc2)c(O)c2ccccc12)c1ccc(F)cc1` [Compound C188-16]: the figures for the concentration for half-maximal inhibition (IC50) in assay [1], in assay [2] and in assay [4] were > 300 µM, > 300 µM and 4 µM, respectively. Besides, the “Inhibition … compared with C188” value in assay [4] is “improved inhibition”.

As for `O=S(=O)(Nc1cc(Sc2nc[nH]n2)c(O)c2ccccc12)c1ccc(F)cc1` [Compound C188-17], the IC50 is > 300 µM in assay [1], > 300 µM in assay [3] and 3.5 ± 2.1 µM in assay [4]. Moreover, the “Inhibition … compared with C188” value in assay [4] was “improved inhibition”.

Consider `O=S(=O)(Nc1ccc(O)c2ccccc12)c1ccccc1` [Compound C188-21], for which the IC50 is > 300 µM in assay [1], 15 ± 17 µM in assay [3] and > 300 µM in assay [4].

`Cc1ccc(S(=O)(=O)Nc2cc3c4c(oc3c3ccccc23)CCC(C(C)(C)C)C4)c(C)c1` (stereo not shown) [Compound C188-26]: the half-maximal inhibitory concentration (IC50) is > 300 µM in assay [2] and 89 ± 2.8 µM in assay [4].

With `O=S(=O)(Nc1ccc(O)c2ccccc12)c1ccc(F)cc1` [Compound C188-27], the IC50 in assay [1], in assay [2] and in assay [4] was > 300 µM in each case.

Regarding `CC(=O)Oc1c(Br)cc(N(C(C)=O)S(=O)(=O)c2ccc(C)cc2)c2ccccc12` [Compound C188-28], the half-maximal inhibitory concentration (IC50) was 10 µM in assay [1], > 300 µM in assay [2] and 71 ± 33.9 µM in assay [4].

Take `COCc1oc2c(cc(NS(=O)(=O)c3ccc(F)cc3)c3ccccc32)c1C(=O)OC` [Compound C188-29]: the IC50 was > 300 µM in assay [1], > 300 µM in assay [2] and 27.5 ± 10.6 µM in assay [4].

With `CCOC(=O)c1c(C)oc2c1cc(NS(=O)(=O)c1ccc(C(C)(C)C)cc1)c1ccccc12` [Compound C188-35], the IC50 in assay [1] was > 300 µM; in assay [2], > 300 µM; in assay [4], 25.5 ± 6.4 µM.

In the case of `COc1ccc(S(=O)(=O)Nc2cc(Sc3cccc4cccnc34)c(O)c3ccccc23)cc1` [Compound C188-38], the concentration for half-maximal inhibition (IC50) was > 300 µM in assay [1] and 18.5 ± 9.2 µM in assay [4].
